In paper PMC7746742, “The novel rexinoid MSU-42011 is effective for the treatment of preclinical Kras-driven lung cancer” (Scientific Reports, 2020):

Tests used:
Kras-driven lung tumors = test: Treatment of established vinyl carbamate-induced lung adenocarcinomas in A/J mice; format: in vivo
Method: All experiments were performed ethically in accordance with the best practices and AAALAC-accredited Standards for the Management of Laboratory Animals at Michigan State University (MSU). These standards include making every effort to minimize suffering. Mice were euthanized by inhalation of carbon dioxide followed by removal of the lungs. All animal protocols were approved by the Institutional Animal Care and Use Committee (IACUC, protocol 201,800,050)) at MSU. At 7 and 8 weeks of age, A/J female mice (Jackson Laboratories) were injected i.p. with vinyl carbamate (Toronto Research Chemicals, 0.32 mg/mouse). Mice were fed a semi-synthetic diet (AIN-93G BioServ, Flemington NJ), beginning one week before initiation with vinyl carbamate and then for 8 weeks after the first injection. The mice were then randomized into groups (n = 15 mice/group) and fed treatment diets (100 mg rexinoid/kg AIN-93G diet or ~ 25 mg/kg body weight) for 12 weeks. Rexinoids were dissolved in a vehicle of 12.5 ml ethanol and 37.5 ml Neobee oil (Spectrum Chemical, Gardena CA) per kg AIN-93G diet. Six total doses of paclitaxel (Fisher; 15 mg/kg i.p.) and then carboplatin (Fisher; 50 mg/kg i.p.) were given every other week, beginning 9 weeks after injection with vinyl carbamate. After 12 weeks on the treatment diets, blood and lungs were harvested. Lungs were inflated with PBS and surface lesions counted. The left lung was fixed in neutral-buffered formalin (NBF), then sample numbers blinded and randomized. Grossly visible lung tumors on the surface of the left lung were counted. The left lung was embedded in paraffin, step-sectioned (6 sections/lung, 200 microns apart) and then stained with Haemotoxylin and Eosin (H&E). The number, size, and histopathology of tumors on the slides were then evaluated as described. The right lobes of the lung were divided into halves. One half was analyzed by flow cytometry and the other half flash frozen (CO2 and ethanol bath) and stored at − 80 °C.
At 11, 15, and 20 weeks after initiation, anesthesia was induced using 2–4% isofluorane in oxygen at 0.8–2 L/min in a chamber and then maintained using 1.5–2% isofluorane in oxygen at 0.8 L/min using a nosecone. Animals were kept on a heating pad or a heated platform while under anesthesia. Fur was removed from the thoracic area using a chemical depilitory (Nair) immediately prior to imaging. A Vevo 2100 (Fujifilm VisualSonics) high-frequency ultrasound with a MS550D 40 MHz transducer was used to image lung tumors.

[1] = Lipid levels in plasma (triglyceride and cholesterol kits); format: in vivo, A/J mice; conditions: 100 mg/kg diet for 12 weeks, n = 8, mean ± SE
Method: Triglyceride and cholesterol levels in plasma (n = 8 mice/group) harvested at necropsy were measured using the Triglyceride Quantification Assay Kit (Abcam) or the Cholesterol Quantification Kit (Sigma-Aldrich), respectively, using the recommended protocol supplied by the manufacturer.

[2] = Plasma triglycerides in MMTV-neu mice fed rexinoids; format: in vivo; conditions: MMTV-neu mice fed rexinoids for 10 days, n=5-6 mice/group
Method: fold expression triglyceride
Supplemental Fig 1. Correlation of SREPB mRNA expression and triglyceride levels. HepG2 human liver cells were treated with 300 nM of rexinoids for 8 hr,and lysates analyzed by RT-PCR. Triglycerides in plasma from MMTV-neu mice fed rexinoids for10 days were measured using a commercial kit(Abcam). *, p <0.01 vs control; **, p<0.05 vs bex and LG268; n=5-6 mice/group.

SREBP = SREBP protein expression in HepG2 cells (western blot); format: cell-based, human; conditions: 300 nM rexinoids, 24 h
Method: Although we have confirmed that the iNOS assay correlates with in vivo efficacy, few investigators have used the induction of SREBP in vitro as a biomarker to predict the ability of novel rexinoids to increase triglycerides in vivo. Elevated triglycerides are a side-effect found with many RXR agonists in preclinical models and by bexarotene in humans[13],[14]. […] HepG2 human liver cells were used, as the liver is the major organ that regulates lipid homeostasis.
HepG2 were plated in 6-well plates (1 × 10^6 cells/well) and, after allowing the cells to attach overnight, were treated with 300 nM rexinoids and/or varying concentrations of T0901317 (TOCRIS # 2373), GSK 2033 (TOCRIS # 5694), HX 531 (TOCRIS # 3912) for 8 h. Total RNA was isolated with TRIzol (Invitrogen, Carlsbad, CA) and 2 µg RNA was used to synthesize cDNA using the SuperScript III reverse transcriptase kit (Invitrogen, Carlsbad, CA). Primers (IDT) for SREBP (F: 5′-GCCGGTTGATAGGCAGCTT-3′; R: 5′-GGTGAGTGGCGGAACCATT-3′) and GAPDH (F: 5′-[…]-3′; R: 5′-[…]-3′), the SYBR Green Supermix (Bio-rad Laboratories, Hercules, CA) and the QuantStudio 7 Flex Real-Time PCR system (95 °C for 20 s followed by 40 cycles of 95 °C for 15 s and 60 °C for 1 min were used to detect mRNA expression. Relative SREBP/GAPDH gene expression was calculated by the delta-delta Ct method. To evaluate protein expression by western blotting, HepG2 cells were plated as above and treated with 300 nM of rexinoids for 24 h. Cells were harvested and lysed in RIPA buffer (1 M Tris–Cl, 5 M NaCl, pH 7.4, 0.5 M EDTA, 25 mM sodium deoxycholate, 1% triton-X, 0.1% SDS, 0.0125% aprotinin) with protease inhibitors (1% PMSF/0.5% apoprotein/0.1%leupeptin). Protein concentration was measured using a BCA assay (Sigma-Aldrich). Proteins (10 µg/well) were separated in 10% SDS-PAGE gels and transferred to nitrocellulose membranes. Membranes were incubated with SREBP (Active Motif; 1:1000) and GAPDH (Santa Cruz Biotechnology; 1:8000) primary antibodies followed by anti-rabbit secondary antibodies conjugated to horseradish peroxidase (Cell Signaling). Signal was detected using the ECL Western Blotting Substrate (GE Healthcare), and protein levels quantified using ImageJ.

[3] = rexinoids 100 mg/kg diet 12 weeks, C/P i.p. x6
[4] = rexinoids 100 mg/kg diet 12 weeks, C/P i.p. x6, mean ± SE
[5] = tumor histopathology, 12 weeks of treatment

- Cholesterol in plasma [1]: 1.99 ± 0.1ǂ µg/µL
- Triglycerides in plasma [1]: 2.21 ± 0.16ǂ nmol/µL
- Cholesterol in plasma ([1]; listed as bexarotene): 1.99 ± 0.1 µg/µL
- Triglycerides in plasma ([1]; listed as bexarotene): 2.21 ± 0.16 nmol/µL
- Plasma triglyceride levels in mice [2]: 2.38 ± 0.3 nmol/µL
SMILES: C=C(c1ccc(C(=O)O)cc1)c1cc2c(cc1C)C(C)(C)CCC2(C)C [Bexarotene]
- Single agent activity in this model (Kras-driven lung tumors; 100 mg/kg diet, 12 weeks): inactive
- Tumor grades compared to the controls (Kras-driven lung tumors; 12 weeks of treatment): no differences
- Average # tumors/slide (Kras-driven lung tumors; rexinoids 100 mg/kg diet 12 weeks, C 50 mg/kg and P 15 mg/kg i.p. x6, mean ± SE): 3.37 ± 0.3
- Average # tumors/slide (% control) (Kras-driven lung tumors; [3]): 79%
- Average tumor burden (% control) (Kras-driven lung tumors; [3]): 78%
- Average tumor size (% control) (Kras-driven lung tumors; [3]): 100%
- Average tumor burden (Kras-driven lung tumors; [4]): 0.72 ± 0.2 mm^3
- Average tumor size (Kras-driven lung tumors; [4]): 0.22 ± 0.04 mm^3
- # High grade tumors (Kras-driven lung tumors; [5]): 71
- # Low grade tumors (Kras-driven lung tumors; [5]): 1 (1%)
- # Medium grade (Kras-driven lung tumors; [5]): 29 (29%)
- High grade tumors (% total) (Kras-driven lung tumors; [5]): 70%
- Low grade tumors (% total) (Kras-driven lung tumors; [5]): 1 (1%)
- Medium grade (% total) (Kras-driven lung tumors; [5]): 29 (29%)
- SREBP protein levels compared to DMSO control (SREBP): increased SREBP protein levels
